Read-outs that look alike come from different tables or passages of the source.

As a reminder, the inhibition is the change of the read-out against control, counted positive when it falls.

In assay [1] the target is T1, human recombinant serotonin (5-Hydroxytryptamine) 5-HT6 receptor (Homo sapiens, UniProt P50406).
T1 construct: expressed in transfected cells; host or cells: human HeLa cells
Kind of assay: Serotonin 5-HT6 radioligand binding ([3H]LSD). The conditions noted are these: read-out: Serotonin (1 μM) 5-HT6, percent inhibition of specific binding. A digest of the protocol:
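HeLa membranes expressing receptor, in 50 mM Tris-HCl pH 7.4 with 150 mM NaCl, 2 mM ascorbate, 0.001% BSA, incubated with 1.5 nM [3H]LSD for 120 min at 37 °C. Nonspecific binding defined with 5 μM 5-HT.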

The target of assay [2] is T2, human recombinant dopamine D2L receptor (Homo sapiens, UniProt P14416).
T2 construct: expressed in transfected cells; host or cells: CHO cells
The assay is described as follows: Dopamine D2L radioligand binding ([3H]Spiperone). The conditions noted are these: read-out: Dopamine (1 μM) D2L, percent inhibition of specific binding. A digest of the protocol:
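CHO cells expressing the receptor, in 50 mM Tris-HCl pH 7.4 with 1.4 mM ascorbic acid, 0.001% BSA, 150 mM NaCl; 0.16 nM [3H]spiperone, 120 min at 25° C, nonspecific binding with 10 μM haloperidol.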

For assay [3], the target named is T3, human recombinant adrenergic α2A receptor (Homo sapiens, UniProt P08913).
T3 construct: expressed in transfected cells; host or cells: insect Sf9 cells
T3 sequence (P08913 1-465): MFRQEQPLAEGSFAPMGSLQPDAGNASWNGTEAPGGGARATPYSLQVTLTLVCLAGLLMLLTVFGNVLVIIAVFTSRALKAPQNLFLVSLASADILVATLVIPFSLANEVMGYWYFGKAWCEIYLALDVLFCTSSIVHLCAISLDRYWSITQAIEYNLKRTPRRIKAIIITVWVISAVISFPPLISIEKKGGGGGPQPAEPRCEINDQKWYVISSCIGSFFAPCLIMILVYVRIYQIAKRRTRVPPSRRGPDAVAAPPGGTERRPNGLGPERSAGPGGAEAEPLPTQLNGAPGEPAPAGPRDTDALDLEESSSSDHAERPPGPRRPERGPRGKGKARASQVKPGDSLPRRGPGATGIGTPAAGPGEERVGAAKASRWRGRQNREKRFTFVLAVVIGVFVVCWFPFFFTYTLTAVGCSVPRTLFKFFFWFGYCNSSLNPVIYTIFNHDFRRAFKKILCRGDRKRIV
The assay is described as follows: Adrenergic α2A radioligand binding ([3H]MK-912). The note with it: read-out: Adrenergic (1 μM) α2A, percent inhibition of specific binding. A digest of the protocol: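 Membranes from Sf9 cells expressing the receptor were incubated with 1 nM [3H]MK-912 for 60 min at 25 °C in Tris-HCl pH 7.4 with MgCl2 and EDTA. Nonspecific binding defined by 10 μM WB-4101; compounds tested at ≤1 μM (1% DMSO), reported as percent inhibition of specific binding.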

The target in assay [4] is T4, human recombinant adrenergic α2B receptor (Homo sapiens, UniProt P18089).
T4 construct: expressed in transfected cells; host or cells: CHO-K1 cells
T4 sequence (P18089 1-450): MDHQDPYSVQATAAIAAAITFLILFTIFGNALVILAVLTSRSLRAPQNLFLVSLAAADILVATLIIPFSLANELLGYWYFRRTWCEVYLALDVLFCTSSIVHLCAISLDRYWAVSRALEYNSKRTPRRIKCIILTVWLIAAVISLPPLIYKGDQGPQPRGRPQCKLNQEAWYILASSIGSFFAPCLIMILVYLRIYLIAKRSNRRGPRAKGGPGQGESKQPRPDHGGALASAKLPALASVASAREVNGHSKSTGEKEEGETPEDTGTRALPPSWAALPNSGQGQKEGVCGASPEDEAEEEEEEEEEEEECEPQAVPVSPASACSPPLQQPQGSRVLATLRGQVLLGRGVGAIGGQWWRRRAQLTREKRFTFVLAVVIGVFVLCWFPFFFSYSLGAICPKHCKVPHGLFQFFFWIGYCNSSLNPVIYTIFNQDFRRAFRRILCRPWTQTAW
The assay is described as follows: Adrenergic α2B radioligand binding ([3H]Rauwolscine). The note with it: read-out: Adrenergic (1 μM) α2B, percent inhibition of specific binding. The method, boiled down: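 CHO-K1 membranes expressing the receptor were incubated with test compounds (1 μM or lower, 1% DMSO) and 2.5 nM [3H]Rauwolscine for 60 min at 25° C in Tris-HCl pH 7.4 with MgCl2, EDTA and BSA. Bound radioactivity was filtered and counted; nonspecific binding was defined with 10 μM Prazosin, giving percent inhibition of specific binding.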

Setting [5] is: compound at 1 μM, insect Sf9 cells.

T2 sequence (P14416 whole entry): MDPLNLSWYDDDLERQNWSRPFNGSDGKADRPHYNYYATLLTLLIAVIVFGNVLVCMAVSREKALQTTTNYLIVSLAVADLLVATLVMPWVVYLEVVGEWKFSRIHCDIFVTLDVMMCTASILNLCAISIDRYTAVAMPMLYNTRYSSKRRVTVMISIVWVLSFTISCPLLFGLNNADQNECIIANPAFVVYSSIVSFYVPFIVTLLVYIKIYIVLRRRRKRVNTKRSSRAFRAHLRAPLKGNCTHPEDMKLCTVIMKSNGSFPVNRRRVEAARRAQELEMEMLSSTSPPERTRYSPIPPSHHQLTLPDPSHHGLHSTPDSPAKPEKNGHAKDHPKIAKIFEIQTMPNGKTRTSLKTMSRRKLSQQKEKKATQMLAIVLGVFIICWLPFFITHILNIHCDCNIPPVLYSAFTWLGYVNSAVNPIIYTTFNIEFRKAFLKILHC
T1 sequence (P50406 whole entry): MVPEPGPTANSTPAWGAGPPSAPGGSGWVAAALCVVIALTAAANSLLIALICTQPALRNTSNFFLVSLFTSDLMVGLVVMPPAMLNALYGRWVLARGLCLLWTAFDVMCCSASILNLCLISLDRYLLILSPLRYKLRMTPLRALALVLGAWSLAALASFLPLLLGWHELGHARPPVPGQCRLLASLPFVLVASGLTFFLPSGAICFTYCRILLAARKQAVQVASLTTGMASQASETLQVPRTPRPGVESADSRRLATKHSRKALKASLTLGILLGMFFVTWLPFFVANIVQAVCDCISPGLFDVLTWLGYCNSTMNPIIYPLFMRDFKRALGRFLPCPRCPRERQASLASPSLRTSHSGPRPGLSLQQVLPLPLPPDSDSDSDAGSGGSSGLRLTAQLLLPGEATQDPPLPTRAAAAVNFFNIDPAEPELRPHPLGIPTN

Turning to `CN1CCc2c(c3cc(Cl)ccc3n2CCO)C1` [CD89, 2-(8-chloro-2-methyl-3,4-dihydro-1H-pyrido[4,3-b]indol-5(2H)-yl)ethanol], the inhibition at 1 µM was 36% in assay [1] (compound at 1 μM, HeLa cells); 0% in assay [2] (compound at 1 μM, CHO cells); 70% in assay [3] (setting [5]); 100% in assay [4] (compound at 1 μM, CHO-K1 cells).

For the compound `CN1CCc2c(c3cc(Cl)ccc3n2CC(=O)NC2CCCC2)C1` [Compound 27, 2-(8-chloro-1,2,3,4-tetrahydro-2-methylpyrido[4,3-b]indol-5-yl)-N-cyclopentylacetamide], the inhibition at 1 µM is 13% in assay [1] (compound at 1 μM, HeLa cells); -2% in assay [2] (compound at 1 μM, CHO cells); 12% in assay [3] (setting [5]); 35% in assay [4] (compound at 1 μM, CHO-K1 cells).

`CCNC(=O)Cn1c2c(c3cc(C)ccc31)CN(C)CC2` [Compound 22, N-ethyl-2-(1,2,3,4-tetrahydro-2,8-dimethylpyrido[4,3-b]indol-5-yl)acetamide]: the inhibition at 1 µM in assay [1] (compound at 1 μM, HeLa cells) is 27%; in assay [2] (compound at 1 μM, CHO cells), -2%; in assay [3] (setting [5]), 40%; in assay [4] (compound at 1 μM, CHO-K1 cells) it was 58%.

On to `Cc1ccc2c(c1)c1c(n2CCO)CCN(C)C1` [CD90, 2-(2,8-dimethyl-3,4-dihydro-1H-pyrido[4,3-b]indol-5(2H)-yl)ethanol], for which the inhibition at 1 µM in assay [1] (compound at 1 μM, HeLa cells) was 7%; in assay [2] (compound at 1 μM, CHO cells) it was -8%; in assay [3] (setting [5]) it was 22%; in assay [4] (compound at 1 μM, CHO-K1 cells), 61%.

Turning to `CN1CCc2c(c3cc(Cl)ccc3n2CCC(=O)N(C)C)C1` [Compound 49, 3-(8-chloro-1,2,3,4-tetrahydro-2-methylpyrido[4,3-b]indol-5-yl)-N,N-dimethylpropanamide], the inhibition at 1 µM in assay [1] (compound at 1 μM, HeLa cells) was found to be 24%; in assay [2] (compound at 1 μM, CHO cells) it was 9%; in assay [3] (setting [5]), 83%; in assay [4] (compound at 1 μM, CHO-K1 cells), 76%.

Consider `Cc1ccc2c(c1)c1c(n2CCNC(=O)C(C)C)CCN(C)C1` [Compound 61, N-(2-(1,2,3,4-tetrahydro-2,8-dimethylpyrido[4,3-b]indol-5-yl)ethyl)isobutyramide], for which the inhibition at 1 µM in assay [1] (compound at 1 μM, HeLa cells) was 10%; in assay [2] (compound at 1 μM, CHO cells), -3%; in assay [3] (setting [5]), 46%; in assay [4] (compound at 1 μM, CHO-K1 cells), 70%.

Turning to `Cc1ccc2c(c1)c1c(n2CCC(=O)NCC2CCCCC2)CCN(C)C1` [Compound 30, N-(cyclohexylmethyl)-3-(1,2,3,4-tetrahydro-2,8-dimethylpyrido[4,3-b]indol-5-yl)propanamide], the inhibition at 1 µM was determined as 18% in assay [1] (compound at 1 μM, HeLa cells); 7% in assay [2] (compound at 1 μM, CHO cells); 74% in assay [3] (setting [5]); 104% in assay [4] (compound at 1 μM, CHO-K1 cells).

As to `Cc1ccc2c(c1)c1c(n2CCNC(=O)c2ccncc2)CCN(C)C1` [Compound 50, N-(2-(1,2,3,4-tetrahydro-2,8-dimethylpyrido[4,3-b]indol-5-yl)ethyl)isonicotinamide], the inhibition at 1 µM in assay [1] (compound at 1 μM, HeLa cells) was -1%; in assay [2] (compound at 1 μM, CHO cells), 7%; in assay [3] (setting [5]), 38%; in assay [4] (compound at 1 μM, CHO-K1 cells) it was 70%.

In the case of `CN1CCc2c(c3cc(Cl)ccc3n2CC(=O)O)C1` [CD46, 2-(8-chloro-1,2,3,4-tetrahydro-2-methylpyrido[4,3-b]indol-5-yl)acetic acid], the inhibition at 1 µM in assay [1] (compound at 1 μM, HeLa cells) is 39%; in assay [2] (compound at 1 μM, CHO cells), 3%; in assay [3] (setting [5]), 13%; in assay [4] (compound at 1 μM, CHO-K1 cells), 35%.

With `CN1CCc2c(c3cc(Cl)ccc3n2CCBr)C1` [CD88, 5-(2-bromoethyl)-8-chloro-2-methyl-2,3,4,5-tetrahydro-1H-pyrido[4,3-b]indole], the inhibition at 1 µM in assay [1] was determined as 87%; in assay [2], 27%; in assay [3], 80%; in assay [4], 104%.

On to `Cc1ccc2c(c1)c1c(n2CCNC(=O)C2CCCCC2)CCN(C)C1` [Compound 62, N-(2-(1,2,3,4-tetrahydro-2,8-dimethylpyrido[4,3-b]indol-5-yl)ethyl)cyclohexanecarboxamide], for which the inhibition at 1 µM in assay [1] (compound at 1 μM, HeLa cells) came to 19%; in assay [2] (compound at 1 μM, CHO cells) it was 5%; in assay [3] (setting [5]), 40%; in assay [4] (compound at 1 μM, CHO-K1 cells), 92%.

Regarding `CN1CCc2c(c3cc(Cl)ccc3n2CCC(=O)NC2CCCC2)C1` [Compound 31, 3-(8-chloro-1,2,3,4-tetrahydro-2-methylpyrido[4,3-b]indol-5-yl)-N-cyclopentylpropanamide], the inhibition at 1 µM in assay [1] (compound at 1 μM, HeLa cells) is 34%; in assay [2] (compound at 1 μM, CHO cells), 9%; in assay [3] (setting [5]), 37%; in assay [4] (compound at 1 μM, CHO-K1 cells) it was 91%.

In the case of `CCOC(=O)Cn1c2c(c3cc(C)ccc31)CN(C)CC2` [CD57, ethyl 2-(1,2,3,4-tetrahydro-2,8-dimethylpyrido[4,3-b]indol-5-yl)acetate], the inhibition at 1 µM in assay [1] (compound at 1 μM, HeLa cells) was 67%; in assay [2] (compound at 1 μM, CHO cells), 12%; in assay [3] (setting [5]), 45%; in assay [4] (compound at 1 μM, CHO-K1 cells), 65%.

As to `CCCCOC(=O)Cn1c2c(c3cc(Cl)ccc31)CN(C)CC2` [Compound 52, butyl 2-(8-chloro-1,2,3,4-tetrahydro-2-methylpyrido[4,3-b]indol-5-yl)acetate], the inhibition at 1 µM in assay [1] (compound at 1 μM, HeLa cells) stood at 83%; in assay [2] (compound at 1 μM, CHO cells), 22%; in assay [3] (setting [5]), 38%; in assay [4] (compound at 1 μM, CHO-K1 cells) it was 89%.

Take `Cc1ccc2c(c1)c1c(n2CC(=O)Nc2ccc(F)cc2)CCN(C)C1` [Compound 51, N-(4-fluorophenyl)-2-(1,2,3,4-tetrahydro-2,8-dimethylpyrido[4,3-b]indol-5-yl)acetamide]: the inhibition at 1 µM was 30% in assay [1] (compound at 1 μM, HeLa cells); 19% in assay [2] (compound at 1 μM, CHO cells); 22% in assay [3] (setting [5]); 82% in assay [4] (compound at 1 μM, CHO-K1 cells).

As to `CN1CCc2c(c3cc(Cl)ccc3n2CC(=O)NC2CCCCC2)C1` [Compound 60, 2-(8-chloro-1,2,3,4-tetrahydro-2-methylpyrido[4,3-b]indol-5-yl)-N-cyclohexylacetamide], the inhibition at 1 µM in assay [1] (compound at 1 μM, HeLa cells) turned out to be 22%; in assay [2] (compound at 1 μM, CHO cells) it was 18%; in assay [3] (setting [5]), 23%; in assay [4] (compound at 1 μM, CHO-K1 cells), 52%.

`CN1CCc2c(c3cc(Cl)ccc3n2CC(=O)N(C)C)C1` [Compound 48, 2-(8-chloro-1,2,3,4-tetrahydro-2-methylpyrido[4,3-b]indol-5-yl)-N,N-dimethylacetamide]: the inhibition at 1 µM was 12% in assay [1] (compound at 1 μM, HeLa cells); -6% in assay [2] (compound at 1 μM, CHO cells); 20% in assay [3] (setting [5]); 13% in assay [4] (compound at 1 μM, CHO-K1 cells).

As to `CCOC(=O)Cn1c2c(c3cc(Cl)ccc31)CN(C)CC2` [Compound 10, ethyl 2-(8-chloro-1,2,3,4-tetrahydro-2-methylpyrido[4,3-b]indol-5-yl)acetate], the inhibition at 1 µM was 69% in assay [1] (compound at 1 μM, HeLa cells); 12% in assay [2] (compound at 1 μM, CHO cells); 40% in assay [3] (setting [5]); 71% in assay [4] (compound at 1 μM, CHO-K1 cells).

Turning to `Cc1ccc2c(c1)c1c(n2CCNC(=O)C2CCCC2)CCN(C)C1` [Compound 68, N-(2-(1,2,3,4-tetrahydro-2,8-dimethylpyrido[4,3-b]indol-5-yl)ethyl)cyclopentanecarboxamide], the inhibition at 1 µM in assay [1] (compound at 1 μM, HeLa cells) worked out at 15%; in assay [2] (compound at 1 μM, CHO cells) it was 1%; in assay [3] (setting [5]), 62%; in assay [4] (compound at 1 μM, CHO-K1 cells) it was 84%.
